# Experimental data: patent US20030231978A1, “Indoor air quality and antiseptic composition for use therein” (priority 2002, published 2003)
# “Also recorded” adds a separate entry of the source. Where two headings read alike, the source gives them in different places.
# Columns and labels:
# H. pylori = conditions: cited from earlier work
# [1] = Solution and suspension levels of terpenes in water
# Description: The terpene and water were blended in a household blender for 30 seconds.
# Examples of these levels are as follows.
# [2] = system: Third stage (L3) Dirofilaria immitis larvae; experiment: In-vitro larvacidal effect; type: cell-based
# Protocol: Third stage (L3) Dirofilaria immitis larvae were suspended at a concentration of 85 larvae/ml. Larvae were deposited on plates with wells containing b-ionone at a concentration of 5 μM, 50 μM, and 750 μM, Tween® 80, and control media.
# Plates were incubated at 37° C., 95% relative humidity (RH), and 5% CO2 for 6 days.
# After incubation all wells were evaluated for appearance, motility, and molting to stage four (L4) at 24, 48, 72 hours, and 6 days.
# Mycoplasma pneumoniae = experiment: Effectiveness against Mycoplasma pneumoniae (color change of SP4 medium); type: cell-based; conditions: 40 hours treatment
# Protocol: Terpene beta-ionone or L-carvone was first mixed well with Tween® 80 to have a final Tween® 80 concentration of 5 vol %. This mixture was then used to make concentrations of 2500 ppm in sterile phosphate buffer saline (PBS) by blending the mixture in PBS for 40 seconds. This 2500 ppm solution was then diluted to 500 ppm, 250 ppm, and 125 ppm with PBS.
# PBS containing 25 ppm Tween® 80 or PBS alone was used to treat cells suspension as controls.
# A log phase (2-3 -day old) culture of Mycoplasma pneumoniae was mixed with each of the above three concentrations of terpene at 1:1 (volume) ratio (in this case, I mL of cell suspension was added to 1 mL of terpene).
# The culture and terpene mixture was then incubated at 37° C. for 40 hours. After 40 hours of treatment, 10-fold serial dilution was performed to 10 (−10) by first taking 0.1 mL of the treated culture suspension was added into 0.9 mL of fresh SP4 (Whitcomb (1983); SP4 media is commercially available (Remel, Lenexa, Kans., USA)). All the tubes were then incubated at 37° C., and a color change of the medium was used for the indication of the cells that either were killed or survived from the treatment. Color change was from red to yellow because Mycoplasma pneumoniae produces acid during its growth.
# All the treatments were performed in duplicate.
# E. coli = conditions: cited from earlier work
# [3] = Potency decay / breakdown of terpenes in presence of oxygen; type: physicochemical; conditions: 500 ppm solution
# Description: Terpenes will break down in the presence of oxygen. Citral, for example, is an aldehyde and will decay (oxygenate) over a period of days.
# [4] = in water without surfactant, high-shear blending
compound,measurement,setting,value
CC(C)=CCC/C(C)=C/CO [Geraniol],Concentration that inhibited the growth of H. pylori in vitro,H. pylori,2 mg/L
same,Solution levels for various terpenes (maximum level solubilized),[1],500 ppm
C=C(C)C1CC=C(C)C(=O)C1 (stereo not shown) [Carvone],Solution levels for various terpenes (maximum level solubilized),[1]; [4],500 ppm
CC(=O)/C=C/C1=C(C)CCCC1(C)C [b-ionone],"Survival, motility and molting of larvae",[2]; 5 μM,no effect on the larvae
same,"Survival, motility and molting of larvae","[2]; 50 μM, 6 day assay","decreased survivability, motility, and molting; also recorded: Most larvae were dead by 6 days and none molted"
same,"Survival, motility and molting of larvae",[2]; 750 μM,all larvae were dead or moribund within 24 hours
same,Solution levels for various terpenes (maximum level solubilized),[1]; [4],500 ppm
same,Color change of the first tube three days after the 10-fold dilution (killing effect),"Mycoplasma pneumoniae; 62.5 ppm, 125 ppm and 250 ppm",did not change color at all indicating a killing effect
same,Color change of tubes 6 days after the 10-fold dilution,Mycoplasma pneumoniae; 62.5 ppm,only the first tube of 62.5 ppm beta-ionone changed color
same,"Killing of cells, 6 days after the 10-fold dilution",Mycoplasma pneumoniae; 125 and 250 ppm,may have completely killed all cells in 40 hours
Terpeniol,Solution levels for various terpenes (maximum level solubilized),[1]; [4],500 ppm
"CC(C)=CCCC(C)=CC=O [Citral, 3,7-dimethyl-2,6-octadien-1-al]",Citral in growth media that reduced the concentration of E. coli,E. coli,more than 0.01%
same,Citral in growth media with bactericidal effect,E. coli,0.08%
same,Concentration that will lyse human erythrocytes,human erythrocytes,about 1000 ppm
same,Time to lose half its potency,[3],2-3 weeks
same,Level up to which a stable suspension of citral can be formed,[1],up to 2500 ppm
same,Level up to which citral forms a solution in water,"[1]; true solution, high shear mixing, no surfactant",up to 1000 ppm
L-carvone,Color change of the first tube three days after the 10-fold dilution (killing effect),"Mycoplasma pneumoniae; 62.5 ppm, 125 ppm and 250 ppm",no killing effects
same,Color change of the second and third tube 6 days after the 10-fold dilution,"Mycoplasma pneumoniae; 62.5 ppm, 125 ppm and 250 ppm",changed color
